Data as given in ChEMBL document CHEMBL1201862, “PubChem BioAssay data set” (2004).
Activity calls are given as the source filed them.

What was measured:
[1] = molecular target: Nuclear receptor subfamily 0 group B member 1 (Homo sapiens, UniProt P51843); test: Luminescence-based cell-based high throughput dose response assay for inhibitors of the orphan nuclear receptor subfamily 0, group B, member 1 (DAX1; NR0B1). [Related pubchem assays (depositor defined):AID504766, AID504790]; type: functional
Sequence of Nuclear receptor subfamily 0 group B member 1 (P51843 whole entry): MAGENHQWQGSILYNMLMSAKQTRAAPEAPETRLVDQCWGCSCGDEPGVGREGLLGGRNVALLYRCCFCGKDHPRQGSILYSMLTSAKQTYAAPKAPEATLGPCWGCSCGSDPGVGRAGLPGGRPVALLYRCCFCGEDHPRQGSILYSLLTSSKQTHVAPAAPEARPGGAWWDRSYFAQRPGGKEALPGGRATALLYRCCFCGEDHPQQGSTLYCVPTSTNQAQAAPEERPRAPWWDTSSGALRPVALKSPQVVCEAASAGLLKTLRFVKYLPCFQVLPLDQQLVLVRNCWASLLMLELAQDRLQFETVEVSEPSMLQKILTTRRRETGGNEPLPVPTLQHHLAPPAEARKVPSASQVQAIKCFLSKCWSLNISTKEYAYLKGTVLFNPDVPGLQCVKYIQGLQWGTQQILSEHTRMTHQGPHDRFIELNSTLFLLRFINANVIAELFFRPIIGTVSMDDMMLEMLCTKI

[2] = system: HEK293; test: cells; type: functional, cell-based; conditions: Homo sapiens
[3] = system: Streptococcus; test: Group A Streptococcus viability loss, dose response, counter-screen for streptokinase expression inhibitor project, luminescence, BacTiterGlo (AID 1915); type: functional, organism-based;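 also: potency for reduction of bacterial viability or growth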
[4] = cells; type: functional, cell-based; conditions: HEK-CNG
[5] = molecular target: 26S proteasome non-ATPase regulatory subunit 14 (Homo sapiens, UniProt O00487); test: inhibition of proteasome subunit RPN11 – biochemical, fluorescence polarization, uHTS hits, confirmation (AID 602368); type: functional
[6] = molecular target: T1, Galanin receptor type 3 (Homo sapiens, UniProt O60755); test: Fluorescence-based cell-based primary high throughput dose response assay to identify antagonists of the Galanin Receptor 3 (GalR3).; type: functional
T1 sequence (O60755 whole entry): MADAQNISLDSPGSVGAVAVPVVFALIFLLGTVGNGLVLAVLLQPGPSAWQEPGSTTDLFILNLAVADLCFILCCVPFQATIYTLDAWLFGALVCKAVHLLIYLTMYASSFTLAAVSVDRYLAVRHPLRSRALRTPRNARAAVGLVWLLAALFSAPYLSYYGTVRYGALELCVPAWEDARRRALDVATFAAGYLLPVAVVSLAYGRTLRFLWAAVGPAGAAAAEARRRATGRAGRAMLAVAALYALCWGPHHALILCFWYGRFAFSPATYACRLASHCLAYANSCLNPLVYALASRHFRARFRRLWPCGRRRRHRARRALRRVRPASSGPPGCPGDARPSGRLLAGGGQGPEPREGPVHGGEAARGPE

[7] = molecular target: 72 kDa type IV collagenase (Homo sapiens, UniProt P08253); test: Dose Response validation of uHTS RPN11 inhibitor hits using a MMP-2 Fluorescence assay.; type: functional
Sequence of 72 kDa type IV collagenase (P08253 whole entry, the tested form may be a part): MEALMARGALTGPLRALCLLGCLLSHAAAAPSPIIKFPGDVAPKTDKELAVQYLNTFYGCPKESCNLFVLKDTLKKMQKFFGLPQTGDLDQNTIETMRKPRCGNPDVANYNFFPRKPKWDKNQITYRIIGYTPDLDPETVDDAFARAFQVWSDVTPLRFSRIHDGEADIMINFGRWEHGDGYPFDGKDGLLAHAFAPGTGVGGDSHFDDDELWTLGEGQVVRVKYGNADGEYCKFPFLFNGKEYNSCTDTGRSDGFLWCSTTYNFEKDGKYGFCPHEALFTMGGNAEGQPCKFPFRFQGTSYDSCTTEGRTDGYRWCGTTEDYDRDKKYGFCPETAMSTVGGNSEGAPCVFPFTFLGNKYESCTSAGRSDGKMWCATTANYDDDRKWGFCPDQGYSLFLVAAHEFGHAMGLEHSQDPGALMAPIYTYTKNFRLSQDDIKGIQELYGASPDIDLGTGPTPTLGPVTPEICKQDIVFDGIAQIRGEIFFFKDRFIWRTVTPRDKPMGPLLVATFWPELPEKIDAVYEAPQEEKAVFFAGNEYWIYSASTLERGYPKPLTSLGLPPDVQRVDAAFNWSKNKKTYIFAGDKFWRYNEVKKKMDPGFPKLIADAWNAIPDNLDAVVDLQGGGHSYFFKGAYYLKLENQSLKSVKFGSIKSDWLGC

[8] = molecular target: T2, Fatty acid synthase (Homo sapiens, UniProt P49327); test: FAS thioesterase domain inhibitors, dose response, biochemical, endpoint fluorescence intensity, uHTS hits (AID 624327); type: functional;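 also: fluorescence from hydrolysis of an O-methyl fluorescein acyl ester substrate by the enzyme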
T2 sequence (P49327 whole entry, the tested form may be a part): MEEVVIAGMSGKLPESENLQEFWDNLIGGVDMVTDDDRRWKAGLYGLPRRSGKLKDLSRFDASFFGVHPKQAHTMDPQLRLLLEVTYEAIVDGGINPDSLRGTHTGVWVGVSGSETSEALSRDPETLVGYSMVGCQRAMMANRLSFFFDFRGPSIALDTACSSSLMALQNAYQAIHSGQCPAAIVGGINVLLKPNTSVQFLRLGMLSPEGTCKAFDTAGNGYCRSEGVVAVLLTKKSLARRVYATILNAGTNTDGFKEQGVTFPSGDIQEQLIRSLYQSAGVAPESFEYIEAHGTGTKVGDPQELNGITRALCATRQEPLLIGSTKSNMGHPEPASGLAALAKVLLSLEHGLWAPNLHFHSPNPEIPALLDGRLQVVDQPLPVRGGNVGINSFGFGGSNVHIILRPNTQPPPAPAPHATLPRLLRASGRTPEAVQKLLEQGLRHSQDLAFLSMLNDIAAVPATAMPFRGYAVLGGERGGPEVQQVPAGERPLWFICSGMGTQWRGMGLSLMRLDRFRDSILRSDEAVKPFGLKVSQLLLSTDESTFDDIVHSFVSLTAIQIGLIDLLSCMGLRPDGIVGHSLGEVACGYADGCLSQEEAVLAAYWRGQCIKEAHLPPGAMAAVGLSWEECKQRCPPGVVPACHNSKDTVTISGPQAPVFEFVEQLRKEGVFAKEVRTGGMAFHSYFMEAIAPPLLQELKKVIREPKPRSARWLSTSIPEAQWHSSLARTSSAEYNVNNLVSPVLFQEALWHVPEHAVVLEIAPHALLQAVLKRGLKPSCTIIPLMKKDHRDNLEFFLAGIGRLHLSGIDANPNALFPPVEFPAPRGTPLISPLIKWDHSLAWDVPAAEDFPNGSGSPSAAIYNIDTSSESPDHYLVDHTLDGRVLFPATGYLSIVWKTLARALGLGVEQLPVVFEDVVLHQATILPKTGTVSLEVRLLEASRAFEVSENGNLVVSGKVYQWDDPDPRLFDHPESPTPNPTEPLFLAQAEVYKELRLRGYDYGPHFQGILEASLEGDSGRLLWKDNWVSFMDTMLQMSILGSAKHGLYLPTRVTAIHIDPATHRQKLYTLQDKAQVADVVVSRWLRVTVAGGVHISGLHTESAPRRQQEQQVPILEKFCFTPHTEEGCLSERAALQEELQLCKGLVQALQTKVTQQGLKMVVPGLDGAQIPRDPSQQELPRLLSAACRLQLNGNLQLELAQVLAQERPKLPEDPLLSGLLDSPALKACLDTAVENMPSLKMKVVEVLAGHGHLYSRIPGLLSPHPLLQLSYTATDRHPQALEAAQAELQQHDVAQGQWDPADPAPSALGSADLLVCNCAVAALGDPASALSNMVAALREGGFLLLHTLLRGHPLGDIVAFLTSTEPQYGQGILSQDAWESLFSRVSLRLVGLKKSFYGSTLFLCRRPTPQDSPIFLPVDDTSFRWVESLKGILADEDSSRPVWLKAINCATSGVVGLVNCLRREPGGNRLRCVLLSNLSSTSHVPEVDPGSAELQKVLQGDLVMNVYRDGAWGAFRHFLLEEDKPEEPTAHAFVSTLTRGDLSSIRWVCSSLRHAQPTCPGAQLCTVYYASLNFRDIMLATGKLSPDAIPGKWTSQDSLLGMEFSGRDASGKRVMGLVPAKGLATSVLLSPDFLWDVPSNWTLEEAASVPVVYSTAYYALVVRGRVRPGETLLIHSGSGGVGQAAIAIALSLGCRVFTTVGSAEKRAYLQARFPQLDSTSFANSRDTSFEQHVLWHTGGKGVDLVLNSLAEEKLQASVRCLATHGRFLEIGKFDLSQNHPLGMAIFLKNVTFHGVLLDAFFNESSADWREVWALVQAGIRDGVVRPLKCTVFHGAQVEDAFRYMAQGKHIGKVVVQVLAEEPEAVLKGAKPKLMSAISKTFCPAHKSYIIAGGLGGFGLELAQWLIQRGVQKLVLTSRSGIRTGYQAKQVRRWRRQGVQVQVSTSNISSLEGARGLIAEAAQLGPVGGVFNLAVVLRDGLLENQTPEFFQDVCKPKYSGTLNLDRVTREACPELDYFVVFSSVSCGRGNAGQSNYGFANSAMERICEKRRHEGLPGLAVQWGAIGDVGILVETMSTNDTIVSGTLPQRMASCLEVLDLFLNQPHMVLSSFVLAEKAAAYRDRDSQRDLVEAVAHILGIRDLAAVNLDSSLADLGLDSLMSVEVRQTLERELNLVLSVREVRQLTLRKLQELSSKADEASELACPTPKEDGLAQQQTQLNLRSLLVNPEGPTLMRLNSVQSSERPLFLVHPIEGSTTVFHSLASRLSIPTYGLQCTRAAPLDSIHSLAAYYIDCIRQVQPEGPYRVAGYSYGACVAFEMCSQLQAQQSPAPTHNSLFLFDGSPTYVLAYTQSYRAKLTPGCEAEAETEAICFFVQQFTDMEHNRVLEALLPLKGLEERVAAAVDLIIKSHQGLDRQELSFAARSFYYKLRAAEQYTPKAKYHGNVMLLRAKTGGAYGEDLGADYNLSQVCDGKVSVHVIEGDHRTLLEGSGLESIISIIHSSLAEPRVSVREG

[9] = molecular target: Prothrombin (Bos taurus, UniProt P00735); test: thrombin inhibition, dose response, biochemical, fluorescence polarization, uHTS hits (AID 602369); type: functional
[10] = system: Streptococcus sp. 'group A'; test: growth inhibition of control SK(-) GAS strain, dose response, counter-screen for streptokinase expression inhibitor project, luminescence, kanamycin, BacTiterGlo, confirmation (AID 1900); type: functional, organism-based
[11] = molecular target: T2, Fatty acid synthase; test: FAS thioesterase domain inhibitors, dose response, biochemical, kinetic fluorescence intensity (AID 624326); type: functional;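 also: rate of fluorescence rise from hydrolysis of a fluorogenic O-methyl fluorescein ester substrate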
[12] = molecular target: T3, Apoptotic protease-activating factor 1 (Homo sapiens, UniProt O14727); test: SAR analysis of small molecule inhibitors of Apaf-1 in a Fluorescent assay.; type: functional; conditions: read-out: IC50_Mean
T3 sequence (O14727 whole entry): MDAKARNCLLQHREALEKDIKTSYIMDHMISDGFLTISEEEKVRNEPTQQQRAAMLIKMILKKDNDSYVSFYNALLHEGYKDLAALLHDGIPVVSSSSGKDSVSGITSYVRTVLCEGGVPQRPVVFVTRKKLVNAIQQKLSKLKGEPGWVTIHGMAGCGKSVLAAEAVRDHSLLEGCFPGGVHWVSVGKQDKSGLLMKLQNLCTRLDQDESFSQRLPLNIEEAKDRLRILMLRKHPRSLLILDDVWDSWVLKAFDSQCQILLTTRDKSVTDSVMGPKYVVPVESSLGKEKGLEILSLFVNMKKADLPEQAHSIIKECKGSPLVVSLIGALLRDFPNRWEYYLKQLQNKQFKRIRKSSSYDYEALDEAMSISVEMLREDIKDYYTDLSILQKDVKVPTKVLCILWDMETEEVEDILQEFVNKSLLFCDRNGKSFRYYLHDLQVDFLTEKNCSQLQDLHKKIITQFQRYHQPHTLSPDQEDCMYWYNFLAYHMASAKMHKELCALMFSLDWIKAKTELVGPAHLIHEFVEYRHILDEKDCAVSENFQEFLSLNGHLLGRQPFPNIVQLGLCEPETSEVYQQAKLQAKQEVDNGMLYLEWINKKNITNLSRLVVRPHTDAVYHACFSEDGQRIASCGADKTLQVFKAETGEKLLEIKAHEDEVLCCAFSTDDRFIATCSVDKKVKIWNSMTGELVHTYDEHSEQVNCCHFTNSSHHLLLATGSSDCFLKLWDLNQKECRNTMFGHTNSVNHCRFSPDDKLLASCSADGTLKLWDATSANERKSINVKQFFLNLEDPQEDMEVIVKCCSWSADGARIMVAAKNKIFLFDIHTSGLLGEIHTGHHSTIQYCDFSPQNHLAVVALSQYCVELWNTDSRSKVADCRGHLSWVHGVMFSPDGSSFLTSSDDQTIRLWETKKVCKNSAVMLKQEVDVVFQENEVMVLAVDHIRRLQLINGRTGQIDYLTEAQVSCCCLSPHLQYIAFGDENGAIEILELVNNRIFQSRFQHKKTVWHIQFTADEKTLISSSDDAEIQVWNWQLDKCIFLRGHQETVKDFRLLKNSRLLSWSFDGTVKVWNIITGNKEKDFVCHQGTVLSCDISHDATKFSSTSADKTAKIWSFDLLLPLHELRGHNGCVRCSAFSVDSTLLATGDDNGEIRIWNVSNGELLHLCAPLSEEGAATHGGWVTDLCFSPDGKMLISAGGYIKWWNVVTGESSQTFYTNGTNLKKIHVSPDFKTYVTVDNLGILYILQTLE

[13] = molecular target: T4, ATP-dependent translocase ABCB1 (Homo sapiens, UniProt P08183); test: ABCB1 efflux inhibitor potency, dose response, Jurkat-DNR cells, JC-1, flow cytometry, set 2 (AID 504569); type: functional; conditions: read-out: EC50_MICROM_;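 also: potency of pump inhibitors that raise cellular JC-1 green fluorescence up to the nicardipine level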
T4 sequence (P08183 whole entry): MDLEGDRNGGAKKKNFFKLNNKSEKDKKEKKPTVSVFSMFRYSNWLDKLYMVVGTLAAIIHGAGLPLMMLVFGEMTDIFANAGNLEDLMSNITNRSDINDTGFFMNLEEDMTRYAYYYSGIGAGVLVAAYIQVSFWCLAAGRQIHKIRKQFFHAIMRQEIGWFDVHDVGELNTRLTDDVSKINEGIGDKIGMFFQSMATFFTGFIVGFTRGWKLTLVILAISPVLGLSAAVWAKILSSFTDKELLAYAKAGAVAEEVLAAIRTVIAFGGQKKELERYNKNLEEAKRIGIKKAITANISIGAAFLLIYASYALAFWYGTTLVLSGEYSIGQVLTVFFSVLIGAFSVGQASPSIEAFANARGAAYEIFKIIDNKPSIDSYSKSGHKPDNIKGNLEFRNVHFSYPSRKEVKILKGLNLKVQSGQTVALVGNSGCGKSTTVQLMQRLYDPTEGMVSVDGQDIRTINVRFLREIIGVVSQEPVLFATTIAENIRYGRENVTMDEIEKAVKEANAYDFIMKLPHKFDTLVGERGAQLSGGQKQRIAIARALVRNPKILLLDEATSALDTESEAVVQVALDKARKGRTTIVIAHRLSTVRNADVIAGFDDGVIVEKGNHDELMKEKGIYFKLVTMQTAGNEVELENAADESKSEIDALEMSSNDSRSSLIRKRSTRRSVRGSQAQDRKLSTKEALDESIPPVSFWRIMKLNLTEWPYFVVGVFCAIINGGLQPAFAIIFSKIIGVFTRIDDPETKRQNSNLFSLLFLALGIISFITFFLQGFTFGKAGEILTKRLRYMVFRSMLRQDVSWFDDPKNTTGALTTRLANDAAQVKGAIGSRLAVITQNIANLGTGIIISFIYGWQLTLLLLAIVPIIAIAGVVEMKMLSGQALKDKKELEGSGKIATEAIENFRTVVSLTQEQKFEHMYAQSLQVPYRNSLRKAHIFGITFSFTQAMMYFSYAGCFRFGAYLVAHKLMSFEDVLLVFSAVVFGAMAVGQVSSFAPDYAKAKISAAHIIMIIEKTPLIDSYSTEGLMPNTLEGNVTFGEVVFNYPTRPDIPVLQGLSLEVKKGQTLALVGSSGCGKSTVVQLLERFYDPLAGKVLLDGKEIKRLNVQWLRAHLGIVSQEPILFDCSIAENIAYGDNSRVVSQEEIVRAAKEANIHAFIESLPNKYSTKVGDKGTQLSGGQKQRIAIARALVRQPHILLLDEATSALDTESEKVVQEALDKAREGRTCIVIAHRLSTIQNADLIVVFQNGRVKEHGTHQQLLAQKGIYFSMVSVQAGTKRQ

[14] = molecular target: T4, ATP-dependent translocase ABCB1; test: ABCG2 efflux pump inhibitor potency, dose response, Ig-MXP3 cells, JC-1, flow cytometry, set 2 (AID 504566); type: functional; conditions: read-out: EC50_MICROM_;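 also: flow cytometry median green fluorescence of retained JC-1 dye; potency of efflux pump inhibition measured as rising substrate retention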
[15] = molecular target: Adenosylmethionine-8-amino-7-oxononanoate aminotransferase (Mycobacterium tuberculosis, UniProt P9WQ81); test: Mycobacterium tuberculosis BioA enzyme inhibitor Measured in Biochemical System Using Plate Reader - 2163-02_Inhibitor_Dose_CherryPick_Activity.; type: functional, Mycobacterium tuberculosis UT205
[16] = molecular target: Serine/threonine-protein phosphatase (Candida dubliniensis (strain CD36 / CBS 7987 / NCPF 3949 / NRRLY-17841) (Yeast), UniProt B9W6M3); test: calcineurin pathway inhibitors in yeast reporter, dose response, S. cerevisiae, CDRE-lacZ, luminescence, secondary (AID 2388); type: functional, cell-based;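 also: yeast reporter cells carrying a calcineurin-responsive lacZ construct stimulated with calcium chloride; luminescent beta-galactosidase reporter signal in whole cells rather than isolated phosphatase activity; potency for inhibition where a drop in reporter signal means calcineurin blockade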
[17] = C. albicans growth with fluconazole, confirmation, fluorescence, retest (AID 2467); type: functional, cell-based
[18] = NIH-3T3 fibroblast cytotoxicity, dose response, cytotoxicity control, cell-based, fluorescence, Alamar Blue, secondary assay (AID 2327); type: functional;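 also: NIH-3T3 mouse fibroblasts cultured with fluconazole at 8 µg/mL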
[19] = Luminescence Cell-Based Dose Retest to Confirm Inhibitors of Cancer Stem Cells. [Related pubchem assays (depositor defined):AID2717, AID2721]; type: functional; conditions: Homo sapiens
[20] = molecular target: ATP-dependent molecular chaperone HSP82 (Candida albicans (strain WO-1) (Yeast), UniProt C4YTQ8); test: loss of DOC-induced GRE-beta-galactosidase reporter signal, dose response, Hsp90 inhibitor project, S. cerevisiae, luminescence (AID 2400); type: functional, cell-based;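 also: beta-galactosidase luminescence from glucocorticoid response element reporter as proxy for Hsp90 function; inhibitor potency where signal loss means Hsp90 inhibition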

CC(=O)Nc1ccc(S(=O)(=O)N[C@@H](C)C(=O)OCC(=O)c2ccc(Br)s2)cc1
IC50 [1]: > 67.5 µM (inactive) | IC50 [2]: > 67.5 µM (inactive)

COc1cc([N+](=O)[O-])cc(/C=N/NC(=O)c2cncc(Br)c2)c1O
EC50 [3]: 1.02 µM (active) | EC50 [4]: > 29.9 µM (inactive) | IC50 [5]: 49.5 µM (active) | IC50 [6]: > 9.97 µM (active) | IC50 [7]: 12.5 µM (active) | IC50 [8]: 20 µM (active) | IC50 [9]: 39.1 µM (active) | EC50 [10]: 1.85 µM (active) | IC50 [11]: 10.2 µM (active)

COc1ccc(N2C(=O)CC3(CC(c4ccc(F)cc4)=NO3)C2=O)cc1 (stereo not given)
IC50 [12]: 58.3 µM (active)

O=C(c1ccco1)N1CCN(c2cc(Cc3ccccc3)nc3cc(-c4cccc(Cl)c4)nn23)CC1
EC50 [13]: 4.21 µM (active) | EC50 [14]: 0.8 µM (active)

O=C(N[C@@H]1CC[C@H](CCn2cc(-c3cccnc3)nn2)O[C@@H]1CO)c1ccccc1F
AC50 [15]: 6.17 µM (active)

CC/C(=N/NC(=O)c1ccccc1O)c1c(C)nn(-c2ccccc2)c1O
EC50 [16]: > 180 µM (inactive) | EC50 [17]: 0.114 µM (active) | EC50 [18]: 39 µM (active) | AC50 [19]: 3.29 µM (active) | EC50 [20]: > 150 µM (inactive)
